Data published in patent US20220194989A1, “SUPRAMOLECULAR POLYPEPTIDE COMPOSITIONS AND METHODS OF MAKING AND USING THE SAME” (Duke University, priority 2019, published 2022).
Like-named read-outs stand apart in the source and are kept apart here. Where no end group is shown, it is not given here.

Experiments:
influenza = experiment: Unpublished studies of NP-Q11 flu epitope; assay type: in vivo
DC2.4 cells = experiment: Confocal microscopy of nanofiber internalization; assay type: cell-based; conditions: after 24 hours
local macrophages = experiment: In vivo APC uptake of fluorescent nanofibers after i.p. injection; set-up: species or system mice; conditions: 2 hours
Dendritic cells = experiment: as above; set-up: species or system mice; conditions: 2 hours
mice [1] = experiment: Multiplex cytokine analysis of lavage fluid after i.p. injection; assay type: in vivo; conditions: for IFNγ in lavage fluid / IL1β in lavage fluid / IL6 in lavage fluid: 2-hour i.p. stimulation, versus PBS
Source text: Immune activation is not mediated by inflammation.

splenocytes = experiment: Flow cytometry of splenocytes after s.c. immunization; assay type: in vivo, mice; conditions: spleens 5 days after last boost; for CD4+CD25hi T cells (Tregs): versus PBS
Source text: FIG. 8. […] (a) Cartoon of s.c. immunization schedule with either (KEYA)20Q11 (red), Q11 (blue), PBS (gray). Spleens were harvested at week 6. Percent of (b) CD3+ cells and (c) CD3+IL4+ cells from total number of live cells. Percent of (d) CD4+ cells and (e) CD4+IL4+ cells from total number of CD3+ cells. […] Mean+/−s.e.m. shown. n=4-5 experimental replicates per group.
Mice were immunized and boosted twice with (KEYA)20Q11, Q11, or PBS ([…]) and their spleens were harvested 5 days after the last boost. After the splenocytes were stimulated overnight with their immunizing peptide, cells were stained and taken to flow cytometry for analysis.

[2] = set-up: species or system mice; conditions: mouse, in vivo; for persistence at the injection site (average days fluorescence detected): sc
Source text: Persistence at the injection site.

[3] = cited from earlier work
[4] = Nanofiber formation (AFM, ThT binding); assay type: physicochemical; conditions: physiological conditions
mice [5] = experiment: Immunization with four (KEYA)nQ11 lengths, anti-immunizing peptide IgG titers; assay type: in vivo
[6] = system: lymphocytes from draining lymph nodes; experiment: ELISpot on draining lymph nodes restimulated with immunizing peptide; assay type: in vivo, mice; conditions: for induction of antibody and T cell responses: summary of antibody and ELISpot results
mice [7] = experiment: Immunization with Q11 nanofibers containing 1-50% (KEYA)20Q11, anti-p(KEYA)20 IgG titers; assay type: in vivo; conditions: 2 mM total formulation with Q11, boosted every 2.5 weeks
Experimental: FIG. 5. Titration of (KEYA)20 component modulates the strength of engagement with APCs and humoral immunity while maintaining a Type 2 T cell phenotype. Uptake of TAMRA labeled (KEYA)20Q11 in (a) DC2.4 dendritic cells, RAW264.7 macrophages, and B-LCL human B cells stimulated for 0.1, 0.5, 2, 24, and 72 (B cells only) hours measured by flow cytometry. 100% refers to the molar percent of (KEYA)20 incorporated into a 2 mM Q11 nanofiber. 10% indicates 10% (KEYA)20Q11 and 90% Q11, while 0% indicates the entire nanofiber contains only Q11. All groups included 2.5% fluorescent TAMRA-Q11. (b) Representative confocal images of fluorescent Q11 and (KEYA)20Q11 stimulated DC2.4 cells. Nanofibers seen in red, cell nuclei in blue, and cell borders in green. […] (c) Populations of mouse APCs containing nanofibers collected 12 hours after i.p. injection. (d) Cartoon indicating the boosting schedule and graph of the anti-p(KEYA)20 IgG antibody titers. 50% (KEYA)20 is represented darkest red, 33% (KEYA)20 in the second darkest, 10% (KEYA)20 in the second lightest, and 1% (KEYA)20 in the lightest color. Week 16 IgG1 and IgG2c isotypes are shown in (e), (KEYA)20 only produces an IgG1 response when at 33% and 50%. […]

[8] = system: Lymphocyte populations purified from spleens; experiment: ELISpot after immunization with (KEYA)20Q11 co-assembled with PADREQ11; assay type: in vivo, mice; conditions: co-assembled with 2.5% PADREQ11; 3.5 weeks
Experimental: FIG. 6. (KEYA)20Q11 can enhance the T cell stimulatory capabilities of other T and B cell epitopes. (a) ELISpot from mice immunized and boosted with nanofiber formulations containing 2.5% PADREQ11 and either 97.5% (dark red), 2.5% (light red), or 0% (gray) (KEYA)20Q11 co-assembled with Q11 into a 2 mM nanofiber. […] (b) ELISpot from mice immunized and boosted with nanofiber formulations containing 50% NPQ11 and either 50% (red), or 0% (gray) (KEYA)20Q11 co-assembled with Q11 into a 2 mM nanofiber. […] (c) Cartoon of immunization schedule for figures (d) and (e). All groups contained 50% TNFQ11 (d) anti-TNF IgG antibody titers for groups described in (c). (e) anti-TNF IgG1 and IgG2c antibodies. *p<0.05, **p<0.01, ***p<0.001 by 2way ANOVA with Sidak's post hoc test.
Enhancement of co-assembled T and B cell epitopes. Having characterized (KEYA)20Q11 and the subsequent humoral and cellular responses, the inventors tested the hypothesis that co-assembling (KEYA)20Q11 with other epitopes may enhance the response to the co-assembled epitope. Previous work has established a method for ensuring co-assembly of multiple epitopes onto a single nanofiber^38. Highlighting an advantage of the Q11 system, we were able to systematically add and titrate co-assembled (KEYA)20Q11 with a variety of T and B cell epitopes to investigate the resulting magnitude of immune responses. […]

[9] = system: purified lymphocyte populations from spleens; experiment: ELISpot after immunization with (KEYA)20Q11 co-assembled with NP-Q11; assay type: in vivo, mice; conditions: week 3.5
mice [10] = conditions: mouse, in vivo
Experimental: (§1) (a) Footpad swelling measured 3, 6, 12, 24, 48, and 72 hours following a single footpad injection of (KEYA)20Q11 (red), Alum (dark gray), or PBS (light gray) and subtracted from baseline measurements. […] Mean+/−s.e.m. shown. n=3-5 experimental replicates per group.
(§2) Mice were injected sub-dermally on the back-right footpad with (KEYA)20Q11, Alum, or PBS to determine extent of inflammation caused by the nanomaterial (FIG. 7a). […] Footpad swelling was measured over the course of 72 hours and normalized to a pre-injection footpad thickness measurement.

[11] = mouse, in vivo
Experimental: Mice injected with TAMRA labeled Q11 on the left flank and (KEYA)20Q11 on the right were (a) measured with IVIS immediately after injection and daily for 7 days. (b) The number of days the fluorescence was detected was graphed to compare the persistence between the two groups. (c) The radiant efficiency was calculated from the images collected and graphed on a log 10 scale. (d) Total amount of remaining nanofiber and (e) overlap between nanofibers and CD45+ cells calculated from confocal images. (f) Representative confocal images from injection site skin collected on Day 7.
Persistence at the injection site. […] Uptake by APCs occurs primarily at the s.c. injection site, so we used IVIS to image mice injected with fluorescently labeled nanofibers over the course of a week. Mice were injected with Q11 on their left flank and (KEYA)20Q11 on their right (FIG. 9a) and images were taken daily to measure the retention of each nanomaterial at the injection site. […] Skin sections were taken of the injection site on day 7 and stained with CD45, a common lymphocyte marker, and DAPI, a common cell nuclei stain (FIG. 9d-f).

DC2.4 dendritic cells = experiment: alamarBlue cell viability assay; conditions: 0.2-200 μM, compared to untreated cells
RAW264.7 macrophages = experiment: alamarBlue cell viability assay; conditions: 0.2-200 μM, compared to untreated cells
mice [12] = experiment: Footpad swelling after footpad injection; conditions: single footpad injection, measured over 72 hours, compared to PBS
Experimental: as §1, §2

[13] = 12-hour i.p. stimulation, compared to PBS

Molecule: NH2-QVYSLIRPNENPAHK SGSG QQKFQFQFEQQ-Am (H-QVYSLIRPNENPAHKSGSGQQKFQFQFEQQ-NH2; also: linked to (KEYA)20Q11) [NP-Q11]
- protection against an influenza challenge (influenza; unpublished studies): does not raise strong enough responses to be protective
- T cell response phenotype (influenza; unpublished work): IFNγ biased T cell responses

Molecule: QQKFQFQFEQQ (Synthetic- KEYA Q11) [reference compound]
- internalization seen by confocal microscopy (DC2.4 cells): minimally internalized
- local macrophages with nanofiber uptake (local macrophages): ~100%
- dendritic cell population with nanofiber uptake (Dendritic cells): about 25%
- IFNγ in lavage fluid (mice [1]): indistinguishable from PBS
- IL1β in lavage fluid (mice [1]): indistinguishable from PBS
- IL6 in lavage fluid (mice [1]): indistinguishable from PBS
- CD4+CD25hi T cells (Tregs) (splenocytes): significantly increases
- persistence at the injection site (average days fluorescence detected) [2]: 3 days
- inflammation after injection ([3]; in vivo): not inflammatory
- humoral response ([3]; previous reports): no humoral response

Molecule: XXXXXXXXXXXXXXXXXXXXQQKFQFQFEQQ [(KEYA)20Q11]
- nanofiber formation [4]: self-assembles into nanofibers
- Th2 response indicated by IgG1 versus IgG2c titers (mice [5]; week 14): strong Th2 response
- induction of antibody and T cell responses [6]: strong antibody and T cell responses
- IL4 production by T cells (ELISpot) ([6]; week 14, compared with (KEYA)1Q11 or (KEYA)5Q11): significantly higher IL4 production
- internalization seen by confocal microscopy (DC2.4 cells): abundantly present
- local macrophages with nanofiber uptake (local macrophages): ~100%
- dendritic cell population with nanofiber uptake (Dendritic cells): about 60%
- molar concentration in nanofiber necessary to stimulate a (KEYA)20-specific IgG humoral response (mice [7]): ≥ 33%
- Type 2 T cell bias upon re-stimulation with p(KEYA)20 [8]: statistically higher production of IL4 than IFNγ
- T cell response to pNP ([9]; 50% (KEYA)20Q11 co-assembled with 50% NP-Q11 versus 0%): significantly enhanced
- response to re-stimulation with p(KEYA)20 ([9]; co-assembled with 50% NP-Q11): strong response
- IFNγ in lavage fluid (mice [1]): indistinguishable from PBS
- IL1β in lavage fluid (mice [1]): indistinguishable from PBS
- IL6 in lavage fluid (mice [1]): indistinguishable from PBS
- IL4 in lavage fluid (mice [1]; [13]): significantly elevated
- IL5 in lavage fluid (mice [1]; [13]): significantly elevated
- CD4+ T cells (splenocytes): slight reduction
- general proliferation of T cells (total percent of CD3+ cells) (splenocytes): no effect
- percent of IL4+ CD3+ cells (splenocytes): significantly higher percent
- percent of IL4+ CD4+ T cells (splenocytes): increase
- CD4+CD25hi T cells (Tregs) (splenocytes): increases the production of Tregs
- amount retained at the site by radiant efficiency [2]: greater amounts
- persists at the injection site and maintains immunogenicity [2]: up to 7 days
- persistence at the injection site (average days fluorescence detected) [2]: 5 days
- footpad swelling (mice [10]): no distinguishable swelling
- capsule formation around the injected material [11]: little to no capsule formation

Molecule: C[S+](C)[O-] [DMSO]
- cell viability (health of the dendritic cells) (DC2.4 dendritic cells): dose dependent cytotoxic response
- cell viability (health of the macrophages) (RAW264.7 macrophages): dose dependent cytotoxic response

Molecule: SSQNSSDKPVAHVVANHQVE-SGSG-QQKFQFQFEQQ (SSQNSSDKPVAHVVANHQVESGSGQQKFQFQFEQQ; Synthetic- TNF-Q11 TNF4-23 linked to (KEYA)20Q11)
- effect on inflammation ([3]; when a strong B cell response is raised): effectively reduce inflammation

Molecule: Alum
- footpad swelling (mice [12]): significantly larger swelling

Molecule: XQQKFQFQFEQQ (not fully specified; X: randomised place (mixture)) [(KEYA)1Q11]
- (KEYA)n-specific IgG antibodies (mice [5]; boosted every 2.5 weeks, 14-week experiment): no humoral response
- induction of antibody and T cell responses [6]: ineffective at inducing immune responses
